In patent US12371421B2, “Solid forms of a PARP7 inhibitor” (Ribon Therapeutics, Inc., priority 2019, dated 2025):

What was measured:
[1] = tested on: NCI-H1373 lung cancer xenograft; assay: Tumor growth in human NCI-H1373 lung cancer xenograft; format: in vivo, SCID mice
Procedure: For the NCI-H1373 study, SCID mice were inoculated subcutaneously in the right flank with NCI-H1373 cells for tumor development. After 5 days of tumor growth, mice with 89-148 mm^3 tumors were randomized into treatment groups with mean tumor volumes of 121 mm^3. […] Tumor volumes were determined by manual calipers every 2-3 days. Mean tumor volume and SEM are plotted. QD: once a day; PO: per oral administration. Statistical significance is calculated using two-way ANOVA followed by Bonferroni post-tests in which the treatment groups were compared to vehicle control (****P<0.0001).

[2] = tested on: CT26 colon cancer syngeneic model; assay: Tumor growth in murine CT26 colon cancer syngeneic model; format: in vivo, BALB/c mice; conditions: BID 125-500 mg/kg or QD 500 mg/kg for 21 days; P<0.0001 vs vehicle (Day 16)
Procedure: For the CT26 study, BALB/c mice were inoculated subcutaneously in the right flank with CT26 cells for tumor development. After 5 days of cell inoculation, mice with 36-79 mm^3 tumors were randomized into treatment groups with mean tumor volumes of 54 mm^3. […] Tumor volumes were determined by manual calipers every 2-3 days. Mean tumor volume and SEM are plotted. BID: twice a day; PO: per oral administration; QD: once a day; SC: per subcutaneous administration. […] Statistical analysis for tumor growth inhibition (TGI) was performed when at least 8 of the 10 mice were remaining in the vehicle group (Day 16). Statistical significance is calculated using two-way ANOVA followed by Bonferroni post-tests in which the treatment groups were compared to vehicle control (**** P<0.0001).

ACC-MESO-1 = assay: Cancer cell growth inhibition (CellTiter-Glo); format: cell-based; conditions: ACC-MESO-1, mesothelioma; 144 hours
Procedure: (§1) Cells were plated into 384-well plates at a pre-specified density in fetal bovine serum-containing media. Cells were treated with compound or vehicle (DMSO) 24 hrs later, and a day zero plate was collected for analysis. Test compound plates were incubated continuously for 144 hours before cells and cell growth was assessed using a luminescent cell viability assay (CellTiter-Glo, Promega). The GI50 was determined by correcting for the cell count at time zero (time of treatment) and plotting data as percent growth relative to vehicle-treated cells.

CAL-27 = assay: Cancer cell growth inhibition (CellTiter-Glo); format: cell-based; conditions: Homo sapiens; CAL-27, tongue squamous cell carcinoma; 144 hours
Procedure: as §1

HCC1954 = assay: Cancer cell growth inhibition (CellTiter-Glo); format: cell-based; conditions: Homo sapiens; HCC1954, ductal breast carcinoma; 144 hours
Procedure: as §1

IA-LM = assay: Cancer cell growth inhibition (CellTiter-Glo); format: cell-based; conditions: large cell lung carcinoma, 144 hours
Procedure: as §1

KMRC-3 = assay: Cancer cell growth inhibition (CellTiter-Glo); format: cell-based; conditions: KMRC-3, clear cell renal carcinoma; 144 hours
Procedure: as §1

MSTO-211H = assay: Cancer cell growth inhibition (CellTiter-Glo); format: cell-based; conditions: Homo sapiens, biphasic mesothelioma, 144 hours
Procedure: as §1

NCI-H1437 = assay: Cancer cell growth inhibition (CellTiter-Glo); format: cell-based; conditions: Homo sapiens; NCI-H1437, lung adenocarcinoma; 144 hours
Procedure: as §1

NCI-H1944 = assay: Cancer cell growth inhibition (CellTiter-Glo); format: cell-based; conditions: Homo sapiens; NCI-H1944, lung adenocarcinoma; 144 hours
Procedure: as §1

NCI-H1963 = assay: Cancer cell growth inhibition (CellTiter-Glo); format: cell-based; conditions: Homo sapiens; NCI-H1963, small cell lung carcinoma; 144 hours
Procedure: as §1

NCI-H2087 = assay: Cancer cell growth inhibition (CellTiter-Glo); format: cell-based; conditions: Homo sapiens; NCI-H2087, lung adenocarcinoma; 144 hours
Procedure: as §1

NCI-H2291 = assay: Cancer cell growth inhibition (CellTiter-Glo); format: cell-based; conditions: Homo sapiens; NCI-H2291, lung adenocarcinoma; 144 hours
Procedure: as §1

NCI-H2347 = assay: Cancer cell growth inhibition (CellTiter-Glo); format: cell-based; conditions: Homo sapiens; NCI-H2347, lung adenocarcinoma; 144 hours
Procedure: as §1

NCI-H441 = assay: Cancer cell growth inhibition (CellTiter-Glo); format: cell-based; conditions: Homo sapiens; NCI-H441, papillary adenocarcinoma of the lung; 144 hours
Procedure: as §1

T84 = assay: Cancer cell growth inhibition (CellTiter-Glo); format: cell-based; conditions: Homo sapiens; T84, colon adenocarcinoma; 144 hours
Procedure: as §1

## C[C@@H](COCCC(=O)N1CCN(c2ncc(C(F)(F)F)cn2)CC1)Nc1cn[nH]c(=O)c1C(F)(F)F [Compound 1, 5-[[(2S)-1-(3-oxo-3-[4-[5-(trifluoromethyl)pyrimidin-2-yl]piperazin-1-yl]propoxy)propan-2-yl]amino]-4-(trifluoromethyl)-2,3-dihydropyridazin-3-one]
[1]; 62.5, 125, 250, 500 mg/kg QD PO for 28 days, P<0.0001 vs vehicle
  Tumor growth (tumor volume) vs vehicle: significantly reduces tumor growth
[1]; 62.5 to 500 mg/kg once a day for 28 days, oral gavage, all dose levels
  Tumor regression: complete tumor regression
[2]
  Tumor growth (tumor volume) vs vehicle: significantly reduces tumor growth
ACC-MESO-1
  GI50: ≥ 1000 nM
CAL-27
  GI50: ≥ 1000 nM
HCC1954
  GI50: ≥ 1000 nM
IA-LM
  GI50: < 100 nM
KMRC-3
  GI50: ≥ 1000 nM
MSTO-211H
  GI50: ≥ 1000 nM
NCI-H1437
  GI50: ≥ 1000 nM
NCI-H1944
  GI50: ≥ 1000 nM
NCI-H1963
  GI50: ≥ 1000 nM
NCI-H2087
  GI50: ≥ 1000 nM
NCI-H2291
  GI50: ≥ 1000 nM
NCI-H2347
  GI50: < 100 nM
NCI-H441
  GI50: ≥ 1000 nM
T84
  GI50: ≥ 1000 nM
